{"source": "paper PMC3672848", "about": "(Journal of immunology (Baltimore, Md. : 1950), 2013)", "type_in_all_cases": "cell-based", "key": {"P2X7R [1]": {"target": "T1, P2X7R (Homo sapiens, UniProt Q99572)", "T1 sequence (Q99572 1-595)": "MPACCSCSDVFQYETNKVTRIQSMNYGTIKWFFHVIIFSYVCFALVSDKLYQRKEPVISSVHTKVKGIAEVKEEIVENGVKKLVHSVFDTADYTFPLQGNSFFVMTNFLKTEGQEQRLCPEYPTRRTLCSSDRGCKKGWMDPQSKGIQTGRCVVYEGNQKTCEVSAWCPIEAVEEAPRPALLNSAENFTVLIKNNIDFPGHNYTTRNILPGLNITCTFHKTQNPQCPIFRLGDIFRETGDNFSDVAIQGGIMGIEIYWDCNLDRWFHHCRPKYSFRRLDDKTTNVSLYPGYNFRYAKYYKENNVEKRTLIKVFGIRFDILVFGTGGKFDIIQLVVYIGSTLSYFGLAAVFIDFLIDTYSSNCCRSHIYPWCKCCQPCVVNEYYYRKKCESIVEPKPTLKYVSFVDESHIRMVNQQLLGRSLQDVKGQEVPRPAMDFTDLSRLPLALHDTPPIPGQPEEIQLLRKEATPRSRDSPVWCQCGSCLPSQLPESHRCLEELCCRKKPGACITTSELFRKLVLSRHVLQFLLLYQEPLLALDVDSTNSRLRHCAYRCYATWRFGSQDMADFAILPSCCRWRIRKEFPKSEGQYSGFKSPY", "assay": "whole-cell patch clamp:[…] blocks […] ATP-evoked current"}, "P2X7R [2]": {"target": "T1, P2X7R", "assay": "whole-cell patch clamp, concentration-dependent inward currents"}, "P2X7R [3]": {"target": "T1, P2X7R", "assay": "inhibition of ATP-induced"}}, "note": "pEC50, pIC50: −log10 of the molar value.", "data": [{"smiles": "Clc1cccc(-c2nnnn2Cc2cccnc2)c1Cl", "note": "[A438079]", "values": [{"measurement": "pIC50", "setting": "P2X7R [1]", "value": 5.65}]}, {"smiles": "Nc1ncnc2c1ncn2[C@@H]1O[C@H](COP(=O)(O)OP(=O)(O)OP(=O)(O)O)[C@@H](O)[C@H]1O", "note": "[ATP]", "values": [{"measurement": "pEC50", "setting": "P2X7R [2]", "value": 3.06}]}, {"smiles": "O=C1CSC(=O)N1C(CCc1ccncc1)COc1ccc(-c2cccc([N+](=O)[O-])c2)cc1", "note": "(stereo not drawn) [AZ11645373]", "values": [{"measurement": "pIC50", "setting": "P2X7R [3]", "value": 5.87}]}]}
